Reference: patent US8715638B2, “Ethenyl-substituted pyridine and pyrimidine derivatives and their use in treating viral infections” (Merck Sharp & Dohme Corp., priority 2008, dated 2014)

Test system: HCV replicon cells
Test: Cell-based HCV Replicon Assay
Details: Hepatitis C virus, 72 h; HCV replicon RNA level by real time PCR (Taqman), cells harvested on day 3; EC90 = concentration to achieve ΔCT=3.2 over baseline
Experimental: Assays Cell-based HCV Replicon Assay
To measure cell-based anti-HCV activity of the compounds of the present invention, replicon cells were seeded at 5000 cells/well in 96-well collagen I-coated Nunc plates in the presence of the compound of the invention. […] The final concentration of DMSO was 0.5%, fetal bovine serum was 10%, in the assay media. […] The replicon RNA level was measured using real time PCR (Taqman assay). The amplicon was located in 5B. […] GAPDH RNA was used as endogenous control and was amplified in the same reaction as NS5B (multiplex PCR) using primers and VIC-labeled probe recommended by the manufacturer (PE Applied Biosystem). The real-time RT-PCR reactions were run on ABI PRISM 7900HT Sequence Detection System using the following program: 48° C. for 30 min, 95° C. for 10 min, 40 cycles of 95° C. for 15 sec, 60° C. for 1 min. The ΔCT values (CT5B-CTGAPDH) were plotted against the concentration of test compound and fitted to the sigmoid dose-response model using GraphPad PRISM software. EC50 was defined as the concentration of inhibitor necessary to achieve ΔCT=1 over the projected baseline; EC90 the concentration necessary to achieve ΔCT=3.2 over the baseline. Alternatively, to quantitate the absolute amount of replicon RNA, a standard curve was established by including serially diluted T7 transcripts of replicon RNA in the Taqman assay. All Taqman reagents were from PE Applied Biosystems. Such an assay procedure was described in detail in e.g. Malcolm et al., Antimicrobial Agents and Chemotherapy 50: 1013-1020 (2006).

Nc1nc(Cl)c(/C=C/c2cc(F)cc(F)c2)c(N[C@@H]2C[C@H](CO)[C@@H](O)[C@H]2O)n1 [compound 4]
EC90: ≤ 5 µM

Nc1nc(Cl)c(/C=C/c2ccc(F)c(F)c2)c(N[C@@H]2C[C@H](CO)[C@@H](O)[C@H]2O)n1 [compound 6]
EC90: ≤ 5 µM

Nc1nc(Cl)c(/C=C/c2cccc(F)c2F)c(N[C@@H]2C[C@H](CO)[C@@H](O)[C@H]2O)n1 [compound 9]
EC90: ≤ 5 µM

Nc1nc(Cl)c(/C=C/c2cccc(Oc3ccccc3)c2)c(N[C@@H]2C[C@H](CO)[C@@H](O)[C@H]2O)n1 [compound 10]
EC90: ≤ 5 µM

Cc1ccccc1/C=C/c1c(Cl)nc(N)nc1N[C@@H]1C[C@H](CO)[C@@H](O)[C@H]1O [compound 13]
EC90: > 5 µM

Nc1nc(Cl)c(/C=C/c2ccccc2F)c(N[C@@H]2C[C@H](CO)[C@@H](O)C2)n1 [compound 15]
EC90: > 5 µM

CSc1nc(N)nc(N[C@@H]2C[C@H](CO)[C@@H](O)[C@H]2O)c1/C=C/c1ccccc1 [compound 16]
EC90: > 5 µM

Nc1nc(Cl)c(/C=C/c2ccccc2Cl)c(N[C@H]2C=C[C@@H](CO)C2)n1 [compound 17]
EC90: > 5 µM
